{"source": "patent US11572590B2", "about": "“Methods for evaluating tumor cell spheroids using 3D microfluidic cell culture device” (Dana-Farber Cancer Institute, Inc., priority 2017, dated 2023)", "test_system": "CT26 MDOTS", "assay": "Live/dead (AO/PI) imaging of CT26 MDOTS in 3D microfluidic culture", "format": "cell-based, murine", "details": "Cmpd1 (1 μM) + αPD-1, 6 days", "procedure": "Fresh tumor specimens (murine and human patients) were received in media (DMEM) on ice and minced in a 10 cm dish (on ice) using sterile forceps and scalpel. Minced tumor was resuspended in DMEM ([…], […] sodium pyruvate, 1:100 penicillin-streptomycin) (Corning CellGro, Manassas, Va.) +10% FBS (Gemini Bio-Products, West Sacramento, Calif.), 100 U/mL collagenase type IV (Life Technologies, Carlsbad, Calif.), and 15 mM HEPES (Life Technologies, Carlsbad, Calif.), except for CT26 tumors that were prepared in RPMI. Samples were pelleted and resuspended in 10-20 mL media. Red blood cells were removed from visibly bloody samples using RBC Lysis Buffer (Boston Bio-Products, Ashland, Mass.). […]\nDual labeling was performed by loading microfluidic device with Nexcelom ViaStain™ AO/PI Staining Solution (Nexcelom, CS2-0106). Following incubation with the dyes (20 minutes at room temperature in the dark), images were captured on a Nikon Eclipse 80i fluorescence microscope equipped with Z-stack (Prior) and CoolSNAP CCD camera (Roper Scientific). […] Live and dead cell quantitation was performed by measuring total cell area of each dye. […]", "data": [{"smiles": "N#Cc1cc(-c2ncnc(Nc3ccc(N4CCN(C5COC5)CC4)cc3)n2)ccc1OC1CCOCC1", "note": "[Compound 1, 5-(4-((4-(4-(oxetan-3-yl)piperazin-1-yl)phenyl)amino)-1,3,5-triazin-2-yl)-2-((tetrahydro-2H-pyran-4-yl)oxy)benzonitrile]", "values": [{"measurement": "killing of CT26 MDOTS, ex vivo combination treatment", "value": "enhanced killing"}]}]}
